Patent US20100119479A1, “THERAPEUTIC ANTIVIRAL PEPTIDES” (INTERMUNE, INC., priority 2008, published 2010)
pEC50, pIC50: −log10 of the molar value.

Experiments:
[1] = biological target: T1, full-length NS3/NS4A-2 (HCV NS3 protease) (Hepatitis C virus genotype 1b, UniProt Q9WMX2); experiment: NS3 Inhibition Assay (NS3-NS4 protease assay, RETS1 substrate); format: biochemical; details: NS3/NS4A-2 protease
T1 construct: Recombinant E. coli or Baculovirus full-length NS3; host or cells: E. coli or baculovirus (BV) expression
T1 sequence (Q9WMX2 1027-1657): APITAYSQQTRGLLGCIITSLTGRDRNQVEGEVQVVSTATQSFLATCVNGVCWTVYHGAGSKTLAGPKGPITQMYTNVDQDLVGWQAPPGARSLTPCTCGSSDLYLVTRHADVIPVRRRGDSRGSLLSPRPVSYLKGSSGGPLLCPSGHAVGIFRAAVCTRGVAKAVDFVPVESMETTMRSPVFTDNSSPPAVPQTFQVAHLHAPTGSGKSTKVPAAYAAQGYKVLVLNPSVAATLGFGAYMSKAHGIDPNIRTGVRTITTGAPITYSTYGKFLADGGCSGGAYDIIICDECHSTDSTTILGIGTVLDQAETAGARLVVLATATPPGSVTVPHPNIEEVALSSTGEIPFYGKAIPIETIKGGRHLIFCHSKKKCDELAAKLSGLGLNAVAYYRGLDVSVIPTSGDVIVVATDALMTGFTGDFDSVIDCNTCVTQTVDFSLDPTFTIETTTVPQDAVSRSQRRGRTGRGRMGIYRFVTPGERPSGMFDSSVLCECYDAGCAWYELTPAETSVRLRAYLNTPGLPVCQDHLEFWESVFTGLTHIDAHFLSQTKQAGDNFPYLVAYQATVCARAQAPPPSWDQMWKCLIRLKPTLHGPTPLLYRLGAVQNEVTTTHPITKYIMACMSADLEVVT
T1 sequence (Q9WMX2 1658-1711): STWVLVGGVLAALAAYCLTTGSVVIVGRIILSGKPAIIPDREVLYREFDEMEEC
Procedure, shortened: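 Full-length NS3 (E. coli 2 nM or baculovirus 3 nM) precomplexed with excess NS4A-2, preincubated 10 min at room temperature with compound (top 50 μM). Then 2 μM RETS1 FRET substrate added, fluorescence (ex 335/em 495 nm) read kinetically for 30 min. IC50 by 4-parameter fit, converted to Ki using Km 2.03 μM (E. coli) or 1.74 μM (BV).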

[2] = test system: HCV sub-genomic replicon, GS4.3 (HuH-7 hepatoma cells); experiment: Quantitation by ELISA of NPTII in the HCV sub-genomic replicon, GS4.3; format: cell-based; details: Hepatitis C virus, GS4.3 replicon cells, 72 h incubation
Procedure, shortened: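 HuH-7 cells carrying the 1377/NS3-3′ subgenomic replicon were seeded 24 h ahead, then treated in G418-free medium with 3-fold dilutions from 10 μM (1% DMSO, duplicates) for 72 h at 37 °C, 5% CO2. NPTII in lysates was measured by ELISA (TMB, 450 nm). EC50 came from a 4-parameter fit of percent DMSO-control signal.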

Structure (SMILES)	pIC50 [1]	pEC50 [2]
CC[C@@H]1C[C@]1(NC(=O)[C@@H]1C[C@@H](Oc2cc(-c3nc(C(C)C)cs3)nc3c(C)c(OC)ccc23)CN1C(=O)[C@@H](Nc1ccc(F)c(C(F)(F)F)c1)C(C)(C)C)C(=O)NS(=O)(=O)C1CC1 [Compound 308]	> 7.00	> 7.00
CC[C@@H]1C[C@]1(NC(=O)[C@@H]1C[C@@H](Oc2cc(-c3nc(C(C)C)cs3)nc3c(C)c(OC)ccc23)CN1C(=O)[C@@H](Nc1ccc(F)c(C(F)(F)F)c1)C(C)(C)C)C(=O)NS(=O)(=O)N(C)C [Compound 309]	> 7.00	> 7.00
CC(C)(C)[C@H](Nc1ccc(F)c(C(F)(F)F)c1)C(=O)N1C[C@H](OC(=O)N2Cc3cccc(Cl)c3C2)C[C@H]1C(=O)N[C@]1(C(=O)NS(=O)(=O)C2(C)CC2)C[C@H]1C1CC1 [Compound 310]	> 7.00	> 7.00
CC[C@@H]1C[C@]1(NC(=O)[C@@H]1C[C@@H](OC(=O)N2Cc3ccc(NCCN4CCOCC4)cc3C2)CN1C(=O)[C@@H](Nc1cc(F)cc(C(F)(F)F)c1)C(C)(C)C)C(=O)NS(=O)(=O)C1(C)CC1 [Compound 314]	> 7.00	> 7.00
C=C[C@@H]1C[C@]1(NC(=O)[C@@H]1C[C@@H](Oc2cc(-c3nc(C(C)C)cs3)nc3c(C)c(OC)ccc23)CN1C(=O)[C@@H](Nc1cc(F)cc(C(F)(F)F)c1)C(C)(C)C)C(=O)NS(=O)(=O)C1(C)CC1 [Compound 334]	> 7.00	> 7.00
CC[C@@H]1C[C@]1(NC(=O)[C@@H]1CC(Oc2cc(-c3nc(C(C)C)cs3)nc3c(C)c(OC)ccc23)CN1C(=O)[C@@H](Nc1cccc(C(F)(F)F)c1)C(C)(C)C)C(=O)NS(=O)(=O)C1CC1 (some centres unmarked) [Compound 335]	> 7.00	> 7.00
CC[C@@H]1C[C@]1(NC(=O)[C@@H]1CC(Oc2cc(-c3nc(C(C)C)cs3)nc3c(C)c(OC)ccc23)CN1C(=O)[C@@H](Nc1cccc(C(F)(F)F)c1)C(C)(C)C)C(=O)NS(=O)(=O)C1(C)CC1 (some centres unmarked) [Compound 336]	> 7.00	> 7.00
CC[C@@H]1C[C@]1(NC(=O)[C@@H]1C[C@@H](Oc2cc(-c3nc(C(C)C)cs3)nc3c(C)c(OC)ccc23)CN1C(=O)[C@@H](Nc1ccccc1[N+](=O)[O-])C(C)(C)C)C(=O)NS(=O)(=O)C1CC1 [Compound 350]	< 6.00	> 7.00
C=C[C@@H]1C[C@]1(NC(=O)[C@@H]1C[C@@H](Oc2cc(-c3nc(C(C)C)cs3)nc3c(C)c(OC)ccc23)CN1C(=O)[C@@H](Nc1ccccc1[N+](=O)[O-])C(C)(C)C)C(=O)NS(=O)(=O)C1CC1 [Compound 351]	6.00 to 7.00	> 7.00
CC[C@@H]1C[C@]1(NC(=O)[C@@H]1C[C@@H](Oc2cc(-c3nc(C(C)C)cs3)nc3c(C)c(OC)ccc23)CN1C(=O)[C@@H](Nc1ccccc1)C(C)(C)C)C(=O)NS(=O)(=O)C1CC1 [Compound 352]	> 7.00	> 7.00
C=C[C@@H]1C[C@]1(NC(=O)[C@@H]1C[C@@H](Oc2cc(-c3nc(C(C)C)cs3)nc3c(C)c(OC)ccc23)CN1C(=O)[C@@H](Nc1ccccc1)C(C)(C)C)C(=O)NS(=O)(=O)C1CC1 [Compound 353]	> 7.00	> 7.00
CC[C@@H]1C[C@]1(NC(=O)[C@@H]1C[C@@H](Oc2cc(-c3nc(C(C)C)cs3)nc3c(C)c(OC)ccc23)CN1C(=O)[C@@H](Nc1cc(F)cc(C(F)(F)F)c1)C(C)(C)C)C(=O)NS(=O)(=O)C1CC1 [Compound 354]	> 7.00	> 7.00
C=C[C@@H]1C[C@]1(NC(=O)[C@@H]1C[C@@H](Oc2cc(-c3nc(C(C)C)cs3)nc3c(C)c(OC)ccc23)CN1C(=O)[C@@H](Nc1ccc(F)c(C(F)(F)F)c1)C(C)(C)C)C(=O)NS(=O)(=O)N(C)C [Compound 400]	> 7.00	> 7.00
C=C[C@@H]1C[C@]1(NC(=O)[C@@H]1C[C@@H](Oc2cc(-c3nc(C(C)C)cs3)nc3c(C)c(OC)ccc23)CN1C(=O)[C@@H](Nc1cc(C)cc(C(F)(F)F)c1)C(C)(C)C)C(=O)NS(=O)(=O)C1(C)CC1 [Compound 402]	> 7.00	> 7.00
C=C[C@@H]1C[C@]1(NC(=O)[C@@H]1C[C@@H](Oc2cc(-c3nc(C(C)C)cs3)nc3c(C)c(OC)ccc23)CN1C(=O)[C@@H](Nc1cc(Cl)cc(C(F)(F)F)c1)C(C)(C)C)C(=O)NS(=O)(=O)C1(C)CC1 [Compound 403]	> 7.00	> 7.00
C=C[C@@H]1C[C@]1(NC(=O)[C@@H]1C[C@@H](Oc2cc(-c3nc(C(C)C)cs3)nc3c(C)c(OC)ccc23)CN1C(=O)[C@@H](Nc1cc(F)cc(OC(F)(F)F)c1)C(C)(C)C)C(=O)NS(=O)(=O)C1(C)CC1 [Compound 404]	> 7.00	> 7.00
